Reference: patent publication US20250263370A1 (Tay Therapeutics Limited, priority 2022, published 2025)
Like-named read-outs stand apart in the source and are kept apart here.

What was measured:
[1] = target: BRD4 BD2 (Homo sapiens (Human), UniProt O60885); experiment: NanoBRET bromodomain assay, NanoLuc-BRD4-BD2 fusion in HEK293 cells; details: for IC50: NanoBRET, HEK293 cells, top concentration 10 μM; for Fold selectivity: IC50 for BRD4 BD1 divided by IC50 for BRD4 BD2, qualitative if an IC50 is at the upper limit; for remaining activity at 10 µM: HEK293, read-out: BRD4 BD2 % Activity Remaining @ 10 uM, 10 uM, (2) = second batch;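 on all read-outs here: tracer displacement BRET read in transfected cells after 2 h compound exposure at 37 °C, signal in milliBRET units corrected against no-tracer background wells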
[2] = target: BRD4 BD1 (Homo sapiens (Human), UniProt O60885); experiment: NanoBRET bromodomain assay, NanoLuc-BRD4-BD1 fusion in HEK293 cells; format: cell-based; details: top concentration 10 μM
Experimental: HEK293 cells were transfected using NanoLuc-BRD4-BD1 or NanoLuc-BRD4-BD2 fusion vectors and incubated at 37° C. in an atmosphere of 5% CO2 for 20-24 hours. The transfected cells were then dispensed into 96-well plates using 90 μl cell suspension per well containing 2×10^5 cells/mL in Opti-MEM and 1× final concentration of tracer. 90 μL per well of cell suspension without tracer was also dispensed into at least 3 wells as “No tracer control samples” for background correction. Serially diluted test compounds were prepared at 1000× concentration in DMSO and further diluted to 10× concentration in Opti-MEM. […] Plates were then incubated at 37° C. +5% 002 incubator for 2 hours. […] Donor emission (450 nm) and acceptor emission (610 nm) were measured using PHERAstar (BMG LabTech). For data analysis, the raw BRET ratio was generated and converted to milliBRET units with background correction using the formula: [(Acceptorsample/Donorsample−(Acceptorno tracer control/Donorno tracer control)]×1000. The mBU data was plotted as a function of compound concentration and IC50s for BRET assay were determined by nonlinear regression analysis of concentration response curves using the Collaborative Drug Discovery Vault software. The fold-selectivity was calculated by dividing the IC50 for BRD4 BD1 by the IC50 for BRD4 BD2.

IC50 ([1]; BRD4 BD2 (IC50))	Fold selectivity [1]	IC50 [2]	remaining activity at 10 µM [1]	Molecule	IC50 ([1]; read-out: BRD4 BD2 (IC50))
> 10 µM	— (Fold ≥0 and ≤2)	≥ 10 µM		CCNC(=O)c1cc(OC(C)c2ccc(C)cc2)c(C(=O)NC)[nH]1 (single isomer, unassigned) [Example 26, N^5-ethyl-N^2-methyl-3-(1-(p-tolyl)ethoxy)-1H-pyrrole-2,5-dicarboxamide]	
> 10 µM	— (Fold ≥0 and ≤2)	≥ 10 µM		CCNC(=O)c1cc(OC(C)c2ccc(Cl)cc2)c(C(=O)NC)[nH]1 (single isomer, unassigned) [Example 19, 3-(1-(4-chlorophenyl)ethoxy)-N^5-ethyl-N^2-methyl-1H-pyrrole-2,5-dicarboxamide]	
0.05 to 0.2 µM	XX (Fold >50 and ≤200)	≥ 10 µM		CCNC(=O)c1cc(OC(C)c2ccccc2F)c(C(=O)NC)[nH]1 (racemic) [Example 124, N^5-ethyl-3-(1-(2-fluorophenyl)ethoxy)-N^2-methyl-1H-pyrrole-2,5-dicarboxamide]	
1 to 10 µM	X (Fold >2 and ≤50)	≥ 10 µM		CNC(=O)c1[nH]c(-c2ccc(F)cc2F)cc1O[C@@H](C)c1ccccc1 [Example 86, (S)-5-(2,4-difluorophenyl)-N-methyl-3-(1-phenylethoxy)-1H-pyrrole-2-carboxamide]	
0.2 to 1 µM	X (Fold >2 and ≤50)	≥ 10 µM		CCNC(=O)c1cc(OC(C)c2ccc(C(F)(F)F)cc2)c(C(=O)NC)[nH]1 (racemic) [Example 1, N^5-ethyl-N^2-methyl-3-(1-(4-(trifluoromethyl)phenyl)ethoxy)-1H-pyrrole-2,5-dicarboxamide]	
0.05 to 0.2 µM	XX (Fold >50 and ≤200)	≥ 10 µM		CCNC(=O)c1cc(OC(C)c2ccc(OC)cc2)c(C(=O)NC)[nH]1 (single isomer, unassigned) [Example 75, N^5-ethyl-3-(1-(4-methoxyphenyl)ethoxy)-N^2-methyl-1H-pyrrole-2,5-dicarboxamide]	
> 10 µM	— (Fold ≥0 and ≤2)	≥ 10 µM		CCNC(=O)c1cc(OC(C)c2cccc(C#N)c2)c(C(=O)NC)[nH]1 (stereo not shown) [Example 4, 3-(1-(3-cyanophenyl)ethoxy)-N^5-ethyl-N^2-methyl-1H-pyrrole-2,5-dicarboxamide]	
0.05 to 0.2 µM	XX (Fold >50 and ≤200)	≥ 10 µM		CNC(=O)c1[nH]c(C(=O)NC(C)C)cc1O[C@@H](C)c1ccccc1F [Example 58, (S)-3-(1-(2-fluorophenyl)ethoxy)-N^5-isopropyl-N^2-methyl-1H-pyrrole-2,5-dicarboxamide]	
> 10 µM	— (Fold ≥0 and ≤2)	≥ 10 µM		CCNC(=O)c1cc(OC(c2ccccc2)C(C)C)c(C(=O)NC)[nH]1 (racemic) [Example 77, N^5-ethyl-N^2-methyl-3-(2-methyl-1-phenylpropoxy)-1H-pyrrole-2,5-dicarboxamide]	
0.05 to 0.2 µM	XX (Fold >50 and ≤200)	≥ 10 µM		CCNC(=O)c1cc(OC(C)c2ccc(F)cc2)c(C(=O)NC)[nH]1 (racemic) [Example 127, N^5-ethyl-3-(1-(4-fluorophenyl)ethoxy)-N^2-methyl-1H-pyrrole-2,5-dicarboxamide]	
0.05 to 0.2 µM	XX (Fold >50 and ≤200)	≥ 10 µM		CNC(=O)c1[nH]c(-c2ncc[nH]2)cc1O[C@@H](C)c1ccccc1 [Example 89, (S)-5-(1H-imidazol-2-yl)-N-methyl-3-(1-phenylethoxy)-1H-pyrrole-2-carboxamide]	
> 10 µM	— (Fold ≥0 and ≤2)	≥ 10 µM		CCNC(=O)c1cc(OC(C)c2ccccc2F)c(C(=O)NC)[nH]1 (single isomer, unassigned) [Example 21, N^5-ethyl-3-(1-(2-fluorophenyl)ethoxy)-N^2-methyl-1H-pyrrole-2,5-dicarboxamide]	
1 to 10 µM		≥ 10 µM	41%	CNC(=O)c1[nH]c(-c2ncc(C)[nH]2)cc1O[C@H](C)c1ccccc1 [Example 24, (R)-N-methyl-5-(5-methyl-1H-imidazol-2-yl)-3-(1-phenylethoxy)-1H-pyrrole-2-carboxamide]	
0.2 to 1 µM	X (Fold >2 and ≤50)	≥ 10 µM	30%	CCNC(=O)c1cc(OC(C)c2ccccn2)c(C(=O)NC)[nH]1 (racemic) [Example 96, N^5-ethyl-N^2-methyl-3-(1-(pyridin-2-yl)ethoxy)-1H-pyrrole-2,5-dicarboxamide]	
> 10 µM	— (Fold ≥0 and ≤2)	≥ 10 µM		CCNC(=O)c1cc(OC(COC)c2ccccc2)c(C(=O)NC)[nH]1 (racemic) [Example 10, N^5-ethyl-3-(2-methoxy-1-phenylethoxy)-N^2-methyl-1H-pyrrole-2,5-dicarboxamide]	
0.05 to 0.2 µM	XX (Fold >50 and ≤200)	≥ 10 µM		CCNC(=O)c1cc(OC(C)c2cccc(Cl)c2)c(C(=O)NC)[nH]1 (racemic) [Example 3, 3-(1-(3-chlorophenyl)ethoxy)-N^5-ethyl-N^2-methyl-1H-pyrrole-2,5-dicarboxamide]	
0.05 to 0.2 µM	XX (Fold >50 and ≤200)	≥ 10 µM		CCNC(=O)c1cc(OC(C)c2ccccc2C)c(C(=O)NC)[nH]1 (racemic) [Example 5, N^5-ethyl-N^2-methyl-3-(1-(o-tolyl)ethoxy)-1H-pyrrole-2,5-dicarboxamide]	
> 10 µM	— (Fold ≥0 and ≤2)	≥ 10 µM		CNC(=O)c1[nH]c(C(=O)N[C@H](C)C(F)(F)F)cc1O[C@@H](C)c1ccccc1 [Example 119, N^2-methyl-3-((S)-1-phenylethoxy)-N^5-((R)-1,1,1-trifluoropropan-2-yl)-1H-pyrrole-2,5-dicarboxamide]	
0.2 to 1 µM	X (Fold >2 and ≤50)	≥ 10 µM		CNC(=O)c1[nH]c(C(=O)NC(C)(C)C)cc1O[C@@H](C)c1ccccc1 [Example 121]	
1 to 10 µM	— (Fold ≥0 and ≤2)	≥ 10 µM		CCNC(=O)c1cc(OC(C)c2ccnnc2)c(C(=O)NC)[nH]1 (single isomer, unassigned) [Example 79, N^5-ethyl-N^2-methyl-3-(1-(pyridazin-4-yl)ethoxy)-1H-pyrrole-2,5-dicarboxamide]	
0.2 to 1 µM	X (Fold >2 and ≤50)	≥ 10 µM		CCNC(=O)c1cc(OC(C)c2cccc(F)c2F)c(C(=O)NC)[nH]1 (racemic) [Example 13, 3-(1-(2,3-difluorophenyl)ethoxy)-N^5-ethyl-N^2-methyl-1H-pyrrole-2,5-dicarboxamide]	
> 10 µM	— (Fold ≥0 and ≤2)	≥ 10 µM		CCNC(=O)c1cc(OC(C)c2ccc(C#N)cc2)c(C(=O)NC)[nH]1 (racemic) [Example 9, 3-(1-(4-cyanophenyl)ethoxy)-N^5-ethyl-N^2-methyl-1H-pyrrole-2,5-dicarboxamide]	
0.05 to 0.2 µM	XX (Fold >50 and ≤200)	≥ 10 µM		CNC(=O)c1[nH]c(NC(C)=O)cc1O[C@@H](C)c1ccccc1F [Example 128, (S)-5-acetamido-3-(1-(2-fluorophenyl)ethoxy)-N-methyl-1H-pyrrole-2-carboxamide]	
0.2 to 1 µM	X (Fold >2 and ≤50)	≥ 10 µM		CCNC(=O)c1cc(OC(C)c2ccc(F)c(F)c2)c(C(=O)NC)[nH]1 (racemic) [Example 12, 3-(1-(3,4-difluorophenyl)ethoxy)-N5-ethyl-N2-methyl-1H-pyrrole-2,5-dicarboxamide]	
	— (Fold ≥0 and ≤2)			CCNC(=O)c1cc(OC(C)c2c(C)cccc2C)c(C(=O)NC)[nH]1 (single isomer, unassigned) [Example 64, 3-(1-(2,6-dimethylphenyl)ethoxy)-N^5-ethyl-N^2-methyl-1H-pyrrole-2,5-dicarboxamide]	
	— (Fold ≥0 and ≤2)			CNC(=O)c1[nH]c(C(=O)NC2CCC2)cc1OC(C)c1ccc(Cl)cc1 (single isomer, unassigned) [Example 28, 3-(1-(4-chlorophenyl)ethoxy)-N^5-cyclobutyl-N^2-methyl-1H-pyrrole-2,5-dicarboxamide]	
	— (Fold ≥0 and ≤2)			CNC(=O)c1[nH]c(C(=O)N[C@H]2CC[C@H](O)CC2)cc1O[C@@H](C)c1ccnnc1 (single isomer, unassigned) [Example 92, N^5-(4-hydroxycyclohexyl)-N^2-methyl-3-(1-(pyridazin-4-yl)ethoxy)-1H-pyrrole-2,5-dicarboxamide]	

Molecule	IC50 ([1]; BRD4 BD2 (IC50))	Fold selectivity [1]	IC50 [2]	remaining activity at 10 µM [1]	IC50 ([1]; read-out: BRD4 BD2 (IC50))
CCNC(=O)c1cc(OC(C)c2ccc3c(c2)COC3)c(C(=O)NC)[nH]1 (racemic) [Example 15, 3-(1-(1,3-dihydroisobenzofuran-5-yl)ethoxy)-M-ethyl-N^2-methyl-1H-pyrrole-2,5-dicarboxamide]	0.2 to 1 µM	X (Fold >2 and ≤50)	≥ 10 µM		
(S)—N^2-ethyl-4-(1-(2-fluorophenyl) ethyl)-N^5,3-dimethyl-1H-pyrrole-2,5-dicarboxamide [Example 74]		X (Fold >2 and ≤50)	≥ 10 µM		1 to 10 µM
CCNC(=O)c1cc(OC(C)c2cccc(C)c2)c(C(=O)NC)[nH]1 (racemic) [Example 17, N^5-ethyl-N^2-methyl-3-(1-(m-tolyl)ethoxy)-1H-pyrrole-2,5-dicarboxamide]	0.05 to 0.2 µM	XX (Fold >50 and ≤200)	≥ 10 µM		
